Test results published in patent US20220380383A1, “NEUROPROTECTIVE PDI MODULATING SMALL MOLECULES AND METHODS OF USE THEREOF” (THE TRUSTEES OF COLUMBIA UNIVERSITY IN THE CITY OF NEW YORK, priority 2018, published 2022).
≈ marks a conversion by molar mass, not a printed value. Where two headings read alike, the source gives them in different places.

Key:
[1] = Solubility (stock solvent)
PC12 mHTTQ103 cells = experiment: Rescue of PC12 cells from mHTTQ103-induced cell death; type: cell-based, rat; conditions: for EC50: Rattus norvegicus, PC-12
[2] = target: T1, human catalytic PDI A1 a domain (PDIa) (Homo sapiens, UniProt P07237); experiment: Isothermal titration calorimetry (ITC) binding to PDIa
T1 construct: made in house; host or cells: Escherichia coli BL21-Gold (DE3)
T1 sequence (P07237 18-134): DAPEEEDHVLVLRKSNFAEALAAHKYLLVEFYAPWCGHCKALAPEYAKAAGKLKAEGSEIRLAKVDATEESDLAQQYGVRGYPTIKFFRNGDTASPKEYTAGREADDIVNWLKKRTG
Procedure: All ITC experiments were carried out at 25° C. on MicoCal Auto-ITC200 system (GE Healthcare). […] ITC titration experiments were carried out at 25° C. with 19 injections, 2 μl per injection, and 180 seconds between each injection. The reference cell power was set to 5 μcal/sec. A control experiment was performed for each compound, where each compound was titrated into buffer to account for heat released due to dilution. This background was subtracted from test data before a final dissociation constant was obtained. […] Gibbs free energy, ΔG, was calculated from equation ΔG=ΔH-TΔS. All other parameters, Ka, n, ΔH, ΔS, were determined directly from the titration data.
LOC14 analogs were designed and synthesized as described in the synthetic schemes. The analogs were evaluated for their binding to PDIa using isothermal titration calorimetry (ITC) (results of certain compounds are shown in FIGS. 1A-1E). Next, the analogs were tested for their ability to rescue PC12 cells from mHTT^Q103 induced cell death in a dose-dependent manner (results of certain compounds are shown in FIG. 2).

physchem = conditions: organic solvent or mixture
[3] = Tables 5-13, solvent not given (DMSO in Table 1)
[4] = Tables 5-13, PC12 cells, read-out: EC50
[5] = rescue from mHTTQ103 induced cell death
[6] = rescue from mHTTQ103 induced cell death, read-out: PC12 cells EC50
[7] = N/A = not active, read-out: ITC KD
[8] = Tables 5-13, NA = not active, read-out: Kd

Structure (SMILES)	Solubility [1] [mM in DMSO]	Solubility [1, 3] [mM]	EC50 (PC12 mHTTQ103 cells; [4]) [nM]	Max Viability (%) (PC12 mHTTQ103 cells; Tables 5-13, PC12 cells)	PC12 cells Max % Viability (PC12 mHTTQ103 cells; [5]) [%]	ITC KD ([2]; N/A = not active)	PC12 cells EC50 (PC12 mHTTQ103 cells; [5])	EC50 (PC12 mHTTQ103 cells; [6]) [nM]	Kd [2, 7] [nM]	Kd [2, 8] [nM]	other results
O=c1c2ccccc2sn1-c1ccc(Oc2ccccc2)cc1 [LC-37]	100	100 (≈ 31.9 mg/mL)	1680	22	21.77	KD = N/A irreversible or not active	–	–	–	–	–
O=c1[nH]sc2c(Cl)cccc12 [LC-38]	100	100 (≈ 18.6 mg/mL)	–	8	7.63	KD = N/A irreversible or not active	Not Active	–	–	–	–
O=C(C1CC1)N1CCN(Cn2sc3c(Cl)cccc3c2=O)CC1 [LC-39]	100	100 (≈ 35.2 mg/mL)	–	7	7.02	KD = N/A irreversible or not active	Not Active	–	–	–	–
O=c1[nH]sc2c(C(F)(F)F)cccc12 [LC-41]	100	100 (≈ 21.9 mg/mL)	–	9	9.16	KD = N/A irreversible or not active	Not Active	–	–	–	–
O=C(C1CC1)N1CCN(Cn2sc3c(C(F)(F)F)cccc3c2=O)CC1 [LC-42]	100	100 (≈ 38.5 mg/mL)	–	8	8.17	KD = N/A irreversible or not active	Not Active	–	–	–	–
NC(=O)c1cccc(F)c1SSc1c(F)cccc1C(N)=O [LC-44, 2,2′-disulfanediylbis(3-fluorobenzamide)]	100	–	–	–	87.19	KD = N/A irreversible or not active	–	–	–	–	–
NC(=O)c1cccc(C(F)(F)F)c1SSc1c(C(N)=O)cccc1C(F)(F)F [LC-45]	100	–	–	–	16.98	KD = N/A irreversible or not active	Not Active	–	–	–	–
O=C(C1CC1)N1CCN(Cn2sc3ncccc3c2=O)CC1 [LC-46]	–	–	2830	39	39.23	–	–	2830	9.6	–	Kd ([2]; ITC assay, read-out: KD): 10 nM; Solubility (physchem; DMSO): 50 mM (≈ 15.9 mg/mL); Solubility (physchem): 50 mM (≈ 15.9 mg/mL)
O=c1ssc2ccccc12 [LC-48]	100	100 (≈ 16.8 mg/mL)	–	8	8.14	KD = N/A irreversible or not active	Not Active	–	–	–	–
S=c1ssc2ccccc12 [LC-49]	100	100 (≈ 18.4 mg/mL)	–	9	8.75	KD = N/A irreversible or not active	Not Active	–	–	–	–
O=c1c2cccnc2sn1CCN1CCCCC1 [LC-54]	100	100 (≈ 26.3 mg/mL)	–	11	10.67	–	Not Active	–	< 20	≤ 20	–
O=c1c2cccnc2sn1CCN1CCOCC1 [LC-55]	100	100 (≈ 26.5 mg/mL)	–	13	13.20	–	Not Active	–	20.1	20	–
O=c1c2cccnc2sn1CCC1CCNCC1 [LC-56]	100	100 (≈ 26.3 mg/mL)	–	14	14.03	KD = N/A irreversible or not active	Not Active	–	–	–	–
Cc1nnc2s[nH]c(=O)c2c1C [LC-57, 4,5-dimethylisothiazolo[5,4-c]pyridazin-3(2H)-one]	100	100 (≈ 18.1 mg/mL)	12200	54	54.15	–	–	–	17.5	18	–
C[C@H](c1ccccc1)n1sc2ncccc2c1=O [LC-58, (R)-2-(1-phenylethyl)isothiazolo[5,4-b]pyridin-3(2H)-one]	100	100 (≈ 25.6 mg/mL)	–	14	13.62	–	Not Active	–	0.3	0.3	–
Cc1ccc2c(=O)[nH]sc2c1 [LC-60, 6-Methylbenzo[d]isothiazol-3(2H)-one]	100	100 (≈ 16.5 mg/mL)	562	60	59.49	–	–	562	347	347	–
Cc1ccc2s[nH]c(=O)c2c1 [LC-61, 5-Methylbenzo[d]isothiazol-3(2H)-one]	100	100 (≈ 16.5 mg/mL)	591	65	64.68	–	–	591	267	267	–
Cc1ccc2c(=O)n(CN3CCN(C(=O)C4CC4)CC3)sc2c1 [LC-62, 2-((4-(cyclopropanecarbonyl)piperazin-1-yl)methyl)-6-methylbenzo[d]isothiazol-3(2H)-one]	–	–	1580	54	54.31	–	–	1580	662	662	Solubility (physchem; DMSO): 50 mM (≈ 16.6 mg/mL); Solubility (physchem): 50 mM (≈ 16.6 mg/mL)
Cc1ccc2sn(CN3CCN(C(=O)C4CC4)CC3)c(=O)c2c1 [LC-63, 2-((4-(cyclopropanecarbonyl)piperazin-1-yl)methyl)-5-methylbenzo[d]isothiazol-3(2H)-one]	–	–	659	66	–	–	–	659	240	240	Solubility (physchem; DMSO): 50 mM (≈ 16.6 mg/mL); Solubility (physchem): 50 mM (≈ 16.6 mg/mL)
O=c1c2ccccc2sn1CN1CCC(N2CCCCC2)CC1 [LC-64, 2-([1,4′-bipiperidin]-1′-ylmethyl)benzo[d]isothiazol-3(2H)-one]	–	–	393	81	81.43	–	–	393	–	1210	Kd ([2]; read-out: ITC KD): 1210 nM; Solubility (physchem; DMSO): 50 mM (≈ 16.6 mg/mL); Solubility (physchem): 50 mM (≈ 16.6 mg/mL)
C#CCn1sc2ccccc2c1=O [LC-66, 2-(prop-2-yn-1-yl)benzo[d]isothiazol-3(2H)-one]	100	–	–	–	40.34	–	–	763	–	–	Kd ([2]; two-site binding, first site, read-out: ITC KD1): 30.7 nM; Kd ([2]; two-site binding, second site, read-out: ITC KD2): 14400 nM
O=c1c2ccccc2on1Cc1ccccc1 [LC-67, 2-benzylbenzo[d]isoxazol-3(2H)-one]	100	–	–	–	8.05	Not active or irreversible	not active	–	–	–	–
O=c1c2cccnc2sn1CN1CCN(Cn2sc3ncccc3c2=O)CC1 [LC-68, 2,2′-(piperazine-1,4-diylbis(methylene))bis(isothiazolo[5,4-b]pyridin-3(2H)-one)]	–	–	2060	36	35.78	Not active or irreversible	–	2060	–	–	ITC binding ([2]; FIG. 1, PDI A1a titrated into compound in 0.8% NMP): no binding; Solubility (physchem; NMP (N-Methyl-2-Pyrrolidine)): 5 mM (≈ 2.07 mg/mL); Solubility (physchem; NMP): 5 mM (≈ 2.07 mg/mL)
O=c1c2cccc(F)c2sn1CN1CCN(Cn2sc3c(F)cccc3c2=O)CC1 [LC-69, 2,2′-(piperazine-1,4-diylbis(methylene))bis(7-fluorobenzo[d]isothiazol-3(2H)-one)]	–	–	1970	46	45.50	–	–	1970	700	700	Kd ([2]; FIG. 1, PDI A1a titrated into compound in 0.8% NMP, read-out: Kd1): 700 nM; Solubility (physchem; NMP (N-Methyl-2-Pyrrolidine)): 5 mM (≈ 2.24 mg/mL); Solubility (physchem; NMP): 5 mM (≈ 2.24 mg/mL)
Cc1nc2sn(CN3CCN(Cn4sc5nc(C)c(C)c(C)c5c4=O)CC3)c(=O)c2c(C)c1C [LC-71, 2,2′-(piperazine-1,4-diylbis(methylene))bis(4,5,6-trimethylisothiazolo[5,4-b]pyridin-3(2H)-one)]	–	–	1020	41	40.98	–	–	1020	–	–	Solubility (physchem; NMP (N-Methyl-2-Pyrrolidine)): 2.5 mM (≈ 1.25 mg/mL); Solubility (physchem; NMP): 2.5 mM (≈ 1.25 mg/mL)
Cc1nnc2sn(CN3CCN(Cn4sc5nnc(C)c(C)c5c4=O)CC3)c(=O)c2c1C [LC-72, 2,2′-(piperazine-1,4-diylbis(methylene))bis(4,5-dimethylisothiazolo[5,4-c]pyridazin-3(2H)-one)]	–	–	–	10	10.26	–	Not Active	–	–	–	Solubility (physchem; NMP (N-Methyl-2-Pyrrolidine)): 1 mM (≈ 0.473 mg/mL); Solubility (physchem; NMP): 1 mM (≈ 0.473 mg/mL)
